Patent US5216005A, “Immunosuppressive analogues and derivatives of succinylacetone” (priority 1990, dated 1993)

How the values were obtained:
[1] = tested on: peripheral blood lymphocytes; experiment: viability of peripheral blood lymphocytes with or without PHA, trypan blue exclusion; type: cell-based, human
Experimental: (§1) Viability was determined using the trypan blue exclusion method well known in the art. […] The assays were conducted in duplicate wherein peripheral blood lymphocytes were isolated from two separate individuals, and then treated with or without phytohemagglutinin in the presence of various concentrations of the appropriate succinylacetone derivative.

[2] = as above; type: cell-based, human; conditions: human, peripheral blood lymphocytes; for viability at 2200 µM: 2.2 mM; for viability at 6700 µM: 6.7 mM; for viability at 20000 µM: 20 mM
Experimental: as §1

For `COC(=O)CCC(C(C)=O)C(C)=O` [Methyl 4-Acetyl-5-Oxohexanoate, methyl 4-acetyl-5-oxohexanoate], the Cells/ml ([1]; first individual, (-) PHA, 2.2 mM) was 0.57 X 10^6 Cells/ml, the Cells/ml ([1]; first individual, (-) PHA, 6.7 mM) was 0.57 X 10^6 Cells/ml and the Cells/ml ([1]; first individual, (-) PHA, 20 mM) was 0.5 X 10^6 Cells/ml. For the same molecule, the Cells/ml ([1]; second individual, (+) PHA, 3 μM) was 0.40 X 10^6 Cells/ml, the Cells/ml ([1]; second individual, (+) PHA, 9 μM) was 0.50 X 10^6 Cells/ml and the Cells/ml ([1]; second individual, (+) PHA, 27 μM) was 0.50 X 10^6 Cells/ml. For the same molecule, the Cells/ml ([1]; second individual, (+) PHA, 81 μM) was 0.40 X 10^6 Cells/ml, the Cells/ml ([1]; second individual, (+) PHA, 244 μM) was 0.54 X 10^6 Cells/ml and the Cells/ml ([1]; second individual, (+) PHA, 733 μM) was 0.40 X 10^6 Cells/ml. For the same molecule, the Cells/ml ([1]; second individual, (+) PHA, 2.2 mM) was 0.50 X 10^6 Cells/ml, the Cells/ml ([1]; second individual, (+) PHA, 6.7 mM) was 0.50 X 10^6 Cells/ml and the Cells/ml ([1]; second individual, (+) PHA, 20 mM) was 0.55 X 10^6 Cells/ml. The Cells/ml ([1]; second individual, (-) PHA, 3 μM) was 0.44 X 10^6 Cells/ml, the Cells/ml ([1]; second individual, (-) PHA, 9 μM) was 0.52 X 10^6 Cells/ml and the Cells/ml ([1]; second individual, (-) PHA, 27 μM) was 0.50 X 10^6 Cells/ml. The Cells/ml ([1]; second individual, (-) PHA, 81 μM) was 0.46 X 10^6 Cells/ml, the Cells/ml ([1]; second individual, (-) PHA, 244 μM) was 0.5 X 10^6 Cells/ml and the Cells/ml ([1]; second individual, (-) PHA, 733 μM) was 0.41 X 10^6 Cells/ml. The Cells/ml ([1]; second individual, (-) PHA, 2.2 mM) was 0.54 X 10^6 Cells/ml, the Cells/ml ([1]; second individual, (-) PHA, 6.7 mM) was 0.6 X 10^6 Cells/ml and the Cells/ml ([1]; second individual, (-) PHA, 20 mM) was 0.5 X 10^6 Cells/ml. The viability at 3 µM ([2]; first individual, (+) PHA) was 100%, the viability at 9 µM ([2]; first individual, (+) PHA) was 100% and the viability at 27 µM ([2]; first individual, (+) PHA) was 100%. For the same molecule, the viability at 81 µM ([2]; first individual, (+) PHA) was 100%, the viability at 244 µM ([2]; first individual, (+) PHA) was 100% and the viability at 733 µM ([2]; first individual, (+) PHA) was 100%. For the same molecule, the viability at 2200 µM ([2]; first individual, (+) PHA) was 100%, the viability at 6700 µM ([2]; first individual, (+) PHA) was 100% and the viability at 20000 µM ([2]; first individual, (+) PHA) was 100%. The viability at 3 µM ([2]; first individual, (-) PHA) was 100%, the viability at 9 µM ([2]; first individual, (-) PHA) was 100% and the viability at 27 µM ([2]; first individual, (-) PHA) was 100%. It also gave a viability at 81 µM ([2]; first individual, (-) PHA) of 100%, a viability at 244 µM ([2]; first individual, (-) PHA) of 100% and a viability at 733 µM ([2]; first individual, (-) PHA) of 100%. For the same molecule, the viability at 2200 µM ([2]; first individual, (-) PHA) was 100%, the viability at 6700 µM ([2]; first individual, (-) PHA) was 100% and the viability at 20000 µM ([2]; first individual, (-) PHA) was 100%. For the same molecule, the viability at 3 µM ([2]; second individual, (+) PHA) was 100%, the viability at 9 µM ([2]; second individual, (+) PHA) was 100% and the viability at 27 µM ([2]; second individual, (+) PHA) was 100%. It also gave a viability at 81 µM ([2]; second individual, (+) PHA) of 100%, a viability at 244 µM ([2]; second individual, (+) PHA) of 100% and a viability at 733 µM ([2]; second individual, (+) PHA) of 100%. For the same molecule, the viability at 2200 µM ([2]; second individual, (+) PHA) was 100%, the viability at 6700 µM ([2]; second individual, (+) PHA) was 100% and the viability at 20000 µM ([2]; second individual, (+) PHA) was 100%. The viability at 3 µM ([2]; second individual, (-) PHA) was 100%, the viability at 9 µM ([2]; second individual, (-) PHA) was 100% and the viability at 27 µM ([2]; second individual, (-) PHA) was 100%. It also gave a viability at 81 µM ([2]; second individual, (-) PHA) of 100%, a viability at 244 µM ([2]; second individual, (-) PHA) of 100% and a viability at 733 µM ([2]; second individual, (-) PHA) of 100%. The viability at 2200 µM ([2]; second individual, (-) PHA) was 100%, the viability at 6700 µM ([2]; second individual, (-) PHA) was 100% and the viability at 20000 µM ([2]; second individual, (-) PHA) was 100%.
